Consider 12 molecules from US6362188B1, “Farnesyl protein transferase inhibitors” (Schering Corporation, priority 1998, dated 2002).

One series deals with Human tumor cells. The experiment in a line: Soft Agar Assay (anchorage-independent growth). The format is cell-based. Conditions: colony outgrowth in soft agar, stated as a range for the group. In outline: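 Tumor cells suspended in 0.3% agarose over a 0.6% agarose base, both layers containing the same farnesyl transferase inhibitor concentration. Incubated 10-16 days at 37° C, 5% CO2; colonies stained with MTT (1 mg/mL in PBS) and counted, IC50 determined.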

A word on the melting point: it is the temperature, or range, at which the solid turns liquid. The IC50 is the concentration needed to halve the response being measured. A low value points to greater potency. Regarding `Cc1cn(C[C@H]2CCCN(C(=O)[C@H]3CN([C@H]4c5ccc(Cl)cc5CCc5cc(F)cnc54)CCN3C(=O)OC(C)(C)C)C2)cn1` [Example 261], the melting point was in the range of 115 to 118 °C. This molecule returned an IC50 in the series with Human tumor cells of 0.05 to 30 nM.
`CN1CCN(C(=O)C2CN(C3c4ccc(Cl)cc4CCc4cc(Br)cnc43)CCN2C(=O)OC(C)(C)C)CC1Cn1ccnc1` (stereo not drawn) [Example 5]: the melting point was in the range of 123 to 134 °C. The molecule also yielded an IC50 in the series with Human tumor cells of 0.5 to 30 nM.
The molecule `Cn1cncc1CC1CCCN(C(=O)C2CN(C3c4ccc(Cl)cc4CCc4cccnc43)CCN2C(=O)OC2CCCCC2)C1` (stereo not drawn) [47(K)] gave a melting point of 101 to 123 °C. In the series with Human tumor cells, this molecule yielded a concentration for half-maximal inhibition (IC50) of 0.05 to 30 nM.
For `Cc1cn(C[C@H]2CCCN(C(=O)[C@H]3CN([C@@H]4c5ccc(Cl)cc5CCc5cc(F)cnc54)CCN3C(=O)OC(C)(C)C)C2)cn1` [Example 262], in that order: 122 to 126 °C and 0.05 to 30 nM.
Taken in the same sequence, the figures for `Cc1cn(CC2CCCN(C(=O)C3CN(C4c5ccccc5CCc5cc(Br)cnc54)CCN3C(=O)OC3CCCCC3)C2)cn1` (stereo not drawn) [Example 354] were 124 to 128 °C and 0.05 to 30 nM.
For `Cc1cn(C[C@H]2CCCN(C(=O)[C@H]3CN([C@H]4c5ccc(Cl)cc5CCc5cc(Cl)cnc54)CCN3C(=O)OC(C)(C)C)C2)cn1` [Example 229], in that order: 102 to 113 °C and 0.05 to 30 nM.
For `Cc1nccn1CC1CCCN(C(=O)C2CN(C3c4ccc(Cl)cc4CCc4cccnc43)CCN2C(=O)OC(C)(C)C)C1` (single isomer, unassigned) [Example 27], the melting point lay within 110 to 119 °C. For the same molecule, the IC50 in the series on Human tumor cells fell in the range of 0.5 to 30 nM.
For `Cc1cn(C[C@H]2CCCN(C(=O)[C@H]3CN([C@H]4c5ccc(Cl)cc5CCc5cc(F)cnc54)CCN3C(=O)OC3CCCCC3)C2)cn1` [Example 289], in that order: 120 to 126 °C and 0.05 to 30 nM.
Taken in the same sequence, the figures for `Cc1cn(C[C@H]2CCCN(C(=O)[C@H]3CN([C@@H]4c5ccc(Cl)cc5CCc5cc(Cl)cnc54)CCN3C(=O)OC3CCCCC3)C2)cn1` [Example 258] were 115 to 128 °C and 0.05 to 30 nM.
For `Cc1cn(C[C@@H]2CCCN(C(=O)[C@H]3CN([C@@H]4c5ccc(Cl)cc5CCc5cc(Cl)cnc54)CCN3C(=O)OC(C)(C)C)C2)cn1` [Example 228], in that order: 115 to 128 °C and 0.05 to 30 nM.
Molecule `Cc1cn(CC2CCCN(C(=O)C3CN(C4c5ccc(Cl)cc5CCc5cccnc54)CCN3C(=O)OC(C)(C)C)C2)cn1` (single isomer, unassigned) [Example 29] displayed a melting point of 109 to 124 °C. For the same molecule, the concentration for half-maximal inhibition (IC50) with Human tumor cells lay in the range of 0.5 to 30 nM.
Molecule `CC(C)OC(=O)N1CCN(C2c3ccc(Cl)cc3CCc3cccnc32)CC1C(=O)N1CCCC(Oc2cccnc2)C1` (stereo not drawn) [41(C)] showed a melting point of 104 to 108 °C. This molecule also yielded a half-inhibitory concentration (IC50) with Human tumor cells of 0.05 to 30 nM.
